What was measured:
Assay type in all cases: biochemical
HDAC1 = HDAC1 (Homo sapiens, UniProt Q13547); test: single-concentration inhibition assay; details: 100 μM inhibitor
HDAC6 = biological target: T1, HDAC6 (Homo sapiens, UniProt Q9UBN7); test: single-concentration inhibition assay; details: 100 μM inhibitor
T1 sequence (Q9UBN7 1-1215): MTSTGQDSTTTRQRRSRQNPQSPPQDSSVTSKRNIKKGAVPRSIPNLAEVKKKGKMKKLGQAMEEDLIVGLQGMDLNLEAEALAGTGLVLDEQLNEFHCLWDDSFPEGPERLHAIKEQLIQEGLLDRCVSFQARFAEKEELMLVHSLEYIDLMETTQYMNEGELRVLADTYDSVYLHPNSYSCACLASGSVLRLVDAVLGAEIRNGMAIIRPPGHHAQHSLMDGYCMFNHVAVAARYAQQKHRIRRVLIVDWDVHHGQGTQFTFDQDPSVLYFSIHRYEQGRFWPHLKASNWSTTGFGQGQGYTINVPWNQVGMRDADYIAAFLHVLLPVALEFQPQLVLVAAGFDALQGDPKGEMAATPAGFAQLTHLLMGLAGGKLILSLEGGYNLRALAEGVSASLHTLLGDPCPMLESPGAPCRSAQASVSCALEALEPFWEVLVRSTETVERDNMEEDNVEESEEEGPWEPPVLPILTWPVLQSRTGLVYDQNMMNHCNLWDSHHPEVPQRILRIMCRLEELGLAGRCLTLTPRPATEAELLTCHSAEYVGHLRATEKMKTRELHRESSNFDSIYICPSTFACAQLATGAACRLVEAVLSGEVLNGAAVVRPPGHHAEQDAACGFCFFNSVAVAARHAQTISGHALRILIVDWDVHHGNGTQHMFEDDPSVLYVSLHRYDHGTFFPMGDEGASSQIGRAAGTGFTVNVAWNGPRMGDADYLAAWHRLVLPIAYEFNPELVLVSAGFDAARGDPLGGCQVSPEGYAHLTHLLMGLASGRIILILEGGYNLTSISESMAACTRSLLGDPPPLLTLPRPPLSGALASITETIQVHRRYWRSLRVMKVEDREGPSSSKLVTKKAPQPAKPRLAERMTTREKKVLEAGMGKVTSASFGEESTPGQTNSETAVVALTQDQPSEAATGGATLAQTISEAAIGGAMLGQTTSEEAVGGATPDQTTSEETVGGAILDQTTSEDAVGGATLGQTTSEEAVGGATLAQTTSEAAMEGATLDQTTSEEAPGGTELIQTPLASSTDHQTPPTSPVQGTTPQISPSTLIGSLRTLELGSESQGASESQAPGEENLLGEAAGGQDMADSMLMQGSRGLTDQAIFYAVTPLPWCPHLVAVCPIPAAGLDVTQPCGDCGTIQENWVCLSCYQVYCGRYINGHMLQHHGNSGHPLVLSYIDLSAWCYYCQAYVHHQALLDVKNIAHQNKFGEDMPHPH

HDAC2 = HDAC2 (Homo sapiens, UniProt Q92769); test: fluorogenic HDAC assay; details: 5 μL of 200 μM HDAC substrate in 50 μL; 30 min pre-incubation; 37 °C; BSA
Chain of HDAC2 (Q92769 whole entry): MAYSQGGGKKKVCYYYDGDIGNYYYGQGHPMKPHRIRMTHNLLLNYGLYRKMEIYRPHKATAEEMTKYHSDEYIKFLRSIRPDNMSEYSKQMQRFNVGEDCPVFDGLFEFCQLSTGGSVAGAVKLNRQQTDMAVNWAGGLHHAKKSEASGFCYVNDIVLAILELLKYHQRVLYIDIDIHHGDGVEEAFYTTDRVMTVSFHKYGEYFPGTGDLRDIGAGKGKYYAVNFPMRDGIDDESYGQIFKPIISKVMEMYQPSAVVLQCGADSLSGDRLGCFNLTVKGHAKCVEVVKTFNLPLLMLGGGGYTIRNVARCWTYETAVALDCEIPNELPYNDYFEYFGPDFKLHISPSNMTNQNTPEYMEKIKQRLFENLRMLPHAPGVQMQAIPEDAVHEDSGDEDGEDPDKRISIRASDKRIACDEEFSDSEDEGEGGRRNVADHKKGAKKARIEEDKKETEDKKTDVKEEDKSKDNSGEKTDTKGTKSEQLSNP

Chain of HDAC1 (Q13547 whole entry): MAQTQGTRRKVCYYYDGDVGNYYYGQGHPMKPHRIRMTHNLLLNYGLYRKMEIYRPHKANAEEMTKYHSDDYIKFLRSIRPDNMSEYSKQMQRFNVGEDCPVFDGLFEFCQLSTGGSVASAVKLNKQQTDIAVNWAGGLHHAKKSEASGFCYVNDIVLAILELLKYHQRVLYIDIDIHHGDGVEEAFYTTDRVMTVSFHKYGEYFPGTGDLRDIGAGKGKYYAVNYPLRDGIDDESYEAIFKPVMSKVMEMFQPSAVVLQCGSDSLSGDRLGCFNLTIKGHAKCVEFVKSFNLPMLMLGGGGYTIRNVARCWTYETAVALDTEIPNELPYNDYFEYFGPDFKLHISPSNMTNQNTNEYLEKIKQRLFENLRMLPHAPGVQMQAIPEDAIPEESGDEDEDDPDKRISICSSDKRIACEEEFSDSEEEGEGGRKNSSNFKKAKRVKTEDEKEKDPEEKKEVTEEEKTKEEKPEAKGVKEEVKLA

## ST088357
HDAC1
  % inhibition at 100 μM: 86.90%
HDAC6
  % inhibition at 100 μM: 34.28%
HDAC2
  IC50: 16.9 µM

Source: paper PMC4677828 (Combinatorial chemistry & high throughput screening, 2015)
